Drawing on patent US20130079345A1, “[…] ACTIVE DISUBSTITUTED TRIAZINE DERIVATIVES” (BAYER INTELLECTUAL PROPERTY GMBH, priority 2010, published 2013), this text covers IC50 for 14 molecules.

Structures can show the parent of a compound that is named as a salt.

Experiment [1] deals with NF-kappaB reporter gene activation in HEK293 cells. As to the kind of experiment: NF-kappaB reporter assay. The class given is cell-based. The settings on record: Homo sapiens, 20 ng/ml TNF alpha, 5 h. The procedure:
Cells were maintained in RPMI cell culture medium+glutamine (PAN Biotech GmbH, Aidenbach, Germany) supplemented with 10% fetal calf serum (PAA Laboratories GmbH, Pasching, Austria) and grown at 37° C., 5% CO2. HEK293 cells grown to 50% confluence were transfected with the Amaxa® Cell Line Nucleofector® Kit V (Lonza, Basel, Switzerland, catalog #VCA-1003). Transfections were performed according to manufacturer's optimized protocol for transfection of HEK293 cells. In brief, 2×10^5 cells were transfected with 5 μg highly purified plasmid DNA. Cells were transfected with a NF-kappa B reporter plasmid (pNFkBluc), pTALluc for control, or pMAXGFP for transfection control. After transfection, cells were taken up in 500 μL RPMI1640 cell culture medium, incubated for 1 h at 37° C., and 4.5 ml DMEM without phenol red were added per transfection. Transfected cells were seeded in 96 well plates (Greiner Bio-One, Frickenhausen, Germany, catalog #655098) with 100 μL cell suspension per well and incubated for 48 h. To each well, 100 μL DMEM with 2× concentrated compound diluted from 10 mM DMSO stocks, or 100 μL DMEM with 0.4% DMSO for control wells, was added. The compounds of general formula (I) summarized in Table 6 were used in this assay. Cells were stimulated with 20 ng/ml TNF alpha, and plates were incubated for 5 h at 37° C./5% CO2. Cell culture supernatants were removed to leave 100 μl medium per well, followed by addition of 100 μl Bright Glo luciferase assay reagent (Promega, Madison, Wis., USA, catalog #E2620), and shaking for 5 minutes in the dark. Luminescence was measured with a Victor Photospectrometer (Perkin Elmer, Waltham, Mass., USA). […], values were calculated with the software Excel Fit (IDBS, Guildford, UK) from 2-fold dilution series comprising at least 10 concentrations in duplicates.

Experiment [2] addresses T1, CDK7/CyclinH/Mat1 (Homo sapiens, UniProt P50613).
T1 construct: purchased Carna Biosciences
As to the kind of experiment: Lance Ultra KinaSelect Assay, CDK7. The class given is biochemical. The settings on record: ATP 25 μM, read-out: Inhibition (IC50) CDK7. The procedure: (§1) This protocol describes how the Lance Ultra KinaSelect Assay was performed to determine half maximal inhibitory concentration (IC50) of compounds of general formula (I) and CDK/Cyclin complexes. The principle behind this enzymatic assay is based upon the phosphorylation of the ULight-Peptide Substrat. It is detected by using a specific EU-labeled anti-phospho peptide antibody. The binding of the Eu-labeled anti-phospho peptide antibody to the phosphorylated U Light labeled peptide gives rise to a FRET-signal. Binding of an inhibitor to the kinase prevents phosphorylation of the ULight-MBP Substrat, resulting in a loss of FRET.
(§2) The compounds of general formula (I) summarized in Table 5 were diluted from a 10 mM DMSO stock solution 1:10 in a total volume of 15 μL DMSO. This compound predilution was then serial diluted 1:3 over 8 steps in DMSO and briefly spun down. Each compound solution was now diluted 1:20 in Enzymatic Buffer (HEPES: 50 mM, pH: 7.5; MgCl2: 10 mM; EGTA: 1 mM; DTT: 2 mM; Tween-20: 0.01%), mixed thoroughly and spun down. For every sample, 2 μL of the diluted compound were mixed with 6 μL CDK/Cyclin/Substrat solution and […] in a well of a small volume 384 well plate (Corning Incorporated, Corning, N.Y., USA; order no. 3673). […] For positive controls, in each well 2 μL of DMSO solution (1% final DMSO assay concentration) was mixed with 6 μL CDK/Cyclin/Substrat (appropriate final concentration see Table 3) and 2 μL Tracer ATP solution (appropriate final concentration see Table 3). Positive and negative controls were calculated from at least 8 different sample wells. The 384 well plates were mixed in a Teleshaker plate mixer (Beckman Coulter, Brea, Calif., USA) at 2000 rpm for 40 sec, and incubated for 1 h at room temperature. Before reading, 10 μL detection buffer (Lance Detection Buffer 1×; EDTA: […]; Eu-Anti-P-MBP: see Table 3) was added. The FRET signal was measured at 340 nm excitation, 665 nm and 615 nm emission (for the kinase tracer and LanthaScreen Eu-AB, respectively) with an Envision spectrophotometer (Perkin Elmer, Waltham, Mass., USA) with 50 μs delay and 300 μs integration time. IC50 values were determined from the sigmoidal dose response curves with the software Quattro Workflow (Quattro GmbH, Munich, Germany).

The target in experiment [3] is T2, CDK2/CyclinA (Homo sapiens, UniProt P24941).
T2 construct: purchased Proqinase
Nature of the experiment: Lance Ultra KinaSelect Assay, CDK2. Particulars: ATP 3 μM, read-out: Inhibition (IC50) CDK2. The class given is biochemical. The procedure:
as §1, §2

Experiment [4] deals with T3, CDK4/CyclinD1 (Homo sapiens, UniProt P11802).
T3 construct: purchased Invitrogen
T3 sequence (P11802 whole entry): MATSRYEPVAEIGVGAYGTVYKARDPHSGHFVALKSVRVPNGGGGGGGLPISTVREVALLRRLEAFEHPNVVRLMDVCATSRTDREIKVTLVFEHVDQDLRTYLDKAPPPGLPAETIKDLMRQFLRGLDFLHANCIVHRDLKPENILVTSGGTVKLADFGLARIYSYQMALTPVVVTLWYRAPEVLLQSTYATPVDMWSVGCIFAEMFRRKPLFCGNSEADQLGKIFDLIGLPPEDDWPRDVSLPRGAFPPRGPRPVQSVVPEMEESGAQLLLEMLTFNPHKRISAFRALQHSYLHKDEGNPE
T3 sequence (P24385 whole entry partner): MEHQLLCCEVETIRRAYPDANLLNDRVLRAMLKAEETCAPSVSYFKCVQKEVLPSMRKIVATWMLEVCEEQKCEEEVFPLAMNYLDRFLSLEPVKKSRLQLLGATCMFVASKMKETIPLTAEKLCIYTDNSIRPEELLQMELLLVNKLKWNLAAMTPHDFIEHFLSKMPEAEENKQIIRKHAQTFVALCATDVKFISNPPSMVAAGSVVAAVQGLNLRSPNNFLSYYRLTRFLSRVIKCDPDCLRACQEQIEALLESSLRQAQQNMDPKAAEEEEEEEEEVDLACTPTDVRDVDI
Nature of the experiment: Lance Ultra KinaSelect Assay, CDK4. It counts as biochemical. Particulars: ATP 90 μM, read-out: Inhibition (IC50) CDK4. The procedure:
as §1, §2

The target in experiment [5] is T4, CDK6/CyclinD3 (Homo sapiens, UniProt Q00534).
T4 construct: purchased Carna
T4 sequence (Q00534 whole entry): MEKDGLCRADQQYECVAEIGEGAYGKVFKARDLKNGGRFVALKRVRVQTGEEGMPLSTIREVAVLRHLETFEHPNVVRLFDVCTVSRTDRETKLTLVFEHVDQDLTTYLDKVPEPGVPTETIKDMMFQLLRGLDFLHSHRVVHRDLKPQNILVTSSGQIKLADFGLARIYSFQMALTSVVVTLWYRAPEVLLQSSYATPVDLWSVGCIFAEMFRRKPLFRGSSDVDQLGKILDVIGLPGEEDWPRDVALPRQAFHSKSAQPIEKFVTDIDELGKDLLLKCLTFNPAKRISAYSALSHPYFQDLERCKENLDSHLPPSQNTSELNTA
T4 sequence (P30281 whole entry partner): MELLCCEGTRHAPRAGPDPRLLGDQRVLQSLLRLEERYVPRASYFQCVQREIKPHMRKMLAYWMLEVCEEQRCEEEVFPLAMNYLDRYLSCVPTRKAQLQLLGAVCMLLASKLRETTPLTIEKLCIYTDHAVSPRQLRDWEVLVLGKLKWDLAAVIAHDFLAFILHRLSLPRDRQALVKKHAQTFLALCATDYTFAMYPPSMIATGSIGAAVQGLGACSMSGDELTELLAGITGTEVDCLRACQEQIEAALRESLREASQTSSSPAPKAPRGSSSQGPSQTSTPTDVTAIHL
Nature of the experiment: Lance Ultra KinaSelect Assay, CDK6. Particulars: read-out: Inhibition (IC50) CDK6. The class given is biochemical. On the procedure:
as §1, §2

For experiment [6], the target named is T5, CDK9 (Homo sapiens, UniProt P50750).
T5 construct: purchased Invitrogen
T5 sequence (P50750 whole entry): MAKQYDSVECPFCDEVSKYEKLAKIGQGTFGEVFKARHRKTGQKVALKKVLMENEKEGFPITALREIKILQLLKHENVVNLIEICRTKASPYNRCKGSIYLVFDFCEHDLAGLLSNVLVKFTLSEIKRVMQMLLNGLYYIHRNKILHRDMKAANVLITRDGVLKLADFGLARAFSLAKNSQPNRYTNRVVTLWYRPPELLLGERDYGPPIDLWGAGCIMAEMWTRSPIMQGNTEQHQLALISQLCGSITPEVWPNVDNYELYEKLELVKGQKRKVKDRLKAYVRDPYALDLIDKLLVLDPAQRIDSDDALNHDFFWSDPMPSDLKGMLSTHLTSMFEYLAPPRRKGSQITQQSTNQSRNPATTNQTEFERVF
Nature of the experiment: Lance Ultra KinaSelect Assay, CDK9. The class given is biochemical. The settings on record: read-out: Inhibition (IC50) CDK9. The procedure: as §1, §2

For experiment [7], the system named is LPS-induced TNF alpha release in PBMCs. As to the kind of experiment: TNF alpha release assay. The class given is cell-based. Particulars: Homo sapiens, PBMC, 6 h, 1 μg/mL LPS. The procedure:
Freshly isolated peripheral blood mononuclear cells (PBMCs) were seeded in 96-well cell culture plates with 200,000 cells in 100 μl cell culture medium (DMEM cell culture medium+glutamine from PAN Biotech GmbH, Aidenbach, Germany) supplemented with 10% fetal calf serum (PAA Laboratories GmbH, Pasching, Austria) per well and incubated overnight at 37° C., 5% CO2. To each well, 100 μL cell culture medium with 2× concentrated test compounds diluted from 10 mM DMSO stocks, or 100 μL DMEM with 0.4% DMSO for control wells, was added. The compounds of general formula (I) summarized in Table 6 were used in this assay. After incubation for 1 h at 37° C., 5% CO2, cells were stimulated with 1 μg/mL LPS (Lipopolysaccharides, Sigma, catalog #L4391-1MG; 1 mg/ml stock solution), or left untreated for negative controls, and plates were incubated for 6 h at 37° C./5% CO2. The cell culture plates were centrifuged at 2000 rpm for 5 minutes, and supernatants were transferred to fresh 96-well polypropylene plates. 25 µL of supernatants were transferred into 96-well-plates of the human TNF alpha-tissue culture kit (Meso Scale Discovery, Gaithersburg, Md., USA), and manufacturer's instructions were followed for analysis of TNF alpha levels. Chemoluminescence was measured in the Mesoscale Sector Imager, and EC50 values were calculated with the software Excel Fit (IDBS, Guildford, UK) from 2-fold dilution series comprising at least 6 concentrations in duplicates.

T1 sequence (P50613 whole entry): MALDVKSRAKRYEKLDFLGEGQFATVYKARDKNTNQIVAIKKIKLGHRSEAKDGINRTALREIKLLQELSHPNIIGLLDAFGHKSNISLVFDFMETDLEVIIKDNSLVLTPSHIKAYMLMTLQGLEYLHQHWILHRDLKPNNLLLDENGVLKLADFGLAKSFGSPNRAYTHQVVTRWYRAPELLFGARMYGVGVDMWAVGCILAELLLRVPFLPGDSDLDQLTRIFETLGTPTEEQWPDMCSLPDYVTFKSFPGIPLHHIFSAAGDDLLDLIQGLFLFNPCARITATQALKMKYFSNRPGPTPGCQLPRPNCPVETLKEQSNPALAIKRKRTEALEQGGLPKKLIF
T1 sequence (P51946 whole entry partner): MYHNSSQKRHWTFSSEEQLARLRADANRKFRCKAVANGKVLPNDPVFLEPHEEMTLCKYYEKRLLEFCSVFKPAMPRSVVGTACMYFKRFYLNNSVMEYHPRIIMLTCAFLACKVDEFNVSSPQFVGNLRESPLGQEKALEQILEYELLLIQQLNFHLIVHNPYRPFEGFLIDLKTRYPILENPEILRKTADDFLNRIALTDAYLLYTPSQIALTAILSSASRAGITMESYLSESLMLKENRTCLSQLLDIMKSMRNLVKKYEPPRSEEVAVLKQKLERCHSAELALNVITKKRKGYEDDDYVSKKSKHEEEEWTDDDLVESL
T1 sequence (P51948 whole entry partner): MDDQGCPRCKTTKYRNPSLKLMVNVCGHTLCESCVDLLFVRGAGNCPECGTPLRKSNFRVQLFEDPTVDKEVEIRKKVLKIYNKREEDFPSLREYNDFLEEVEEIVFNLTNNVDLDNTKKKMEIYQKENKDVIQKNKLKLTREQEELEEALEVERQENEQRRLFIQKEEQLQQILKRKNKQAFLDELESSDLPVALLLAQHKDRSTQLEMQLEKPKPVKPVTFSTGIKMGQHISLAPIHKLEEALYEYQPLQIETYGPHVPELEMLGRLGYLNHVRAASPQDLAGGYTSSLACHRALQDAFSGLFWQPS

Broadly, the IC50 is the concentration that inhibits the measured activity by half. Turning to `COc1cc(Cl)ccc1-c1ncnc(Nc2cccc(CS(N)(=O)=O)c2)n1` [Compound B6, 3-[(4-(4-Chloro-2-methoxyphenyl)-1,3,5-triazin-2-yl)amino]benzenemethanesulfonamide], the half-inhibitory concentration (IC50) in experiment [1] was 2490 nM; in experiment [2] it was > 10000 nM; in experiment [3], > 10000 nM; in experiment [4] it was > 10000 nM; in experiment [5], > 10000 nM; in experiment [6] it was 16.2 nM.
In the case of `COc1ccc(F)cc1-c1ncnc(Nc2cccc(CS(N)(=O)=O)c2)n1` [Compound B3, 3-[(4-(5-Fluoro-2-methoxyphenyl)-1,3,5-triazin-2-yl)amino]benzenemethanesulfonamide], the half-inhibitory concentration (IC50) in experiment [1] came out at 2470 nM; in experiment [7] it was 3240 nM.
For `NS(=O)(=O)Cc1cccc(Nc2ncnc(-c3ccccc3OCc3ccncc3)n2)c1` [Compound B16, 3-[(4-(2-((4-Pyridinyl)methoxy)phenyl)-1,3,5-triazin-2-yl)amino]benzenemethanesulfonamide], the IC50 in experiment [1] is 960 nM; in experiment [2], > 10000 nM; in experiment [3] it was 1070 nM; in experiment [4], > 10000 nM; in experiment [5], > 10000 nM; in experiment [6], 9 nM.
`COc1cc(F)ccc1-c1ncnc(Nc2cccc(CS(N)(=O)=O)c2)n1` [B2″, 1-(3-{[4-(4-fluoro-2-methoxyphenyl)-1,3,5-triazin-2-yl]amino}phenyl)methanesulfonamide trifluoroacetic acid salt]: the IC50 in experiment [1] was 1600 nM; in experiment [2], > 10000 nM; in experiment [3], 568 nM; in experiment [4] it was 3210 nM; in experiment [5] it was > 10000 nM; in experiment [6], 11.6 nM.
For the molecule `NS(=O)(=O)Cc1cccc(Nc2ncnc(-c3ccccc3OCc3ccccc3)n2)c1` [B13′, 3-[(4-(2-Benzyloxyphenyl)-1,3,5-triazin-2-yl)amino]benzenemethanesulfonamide trifluoroacetic acid salt], the IC50 in experiment [1] is 360 nM; in experiment [2] it was > 10000 nM; in experiment [3], 1770 nM; in experiment [4], 681 nM; in experiment [5], > 10000 nM; in experiment [6] it was 5.7 nM. In experiment [7], this molecule displayed an IC50 of 120 nM.
On to `CCOc1ccccc1-c1ncnc(Nc2cccc(CS(N)(=O)=O)c2)n1` [Compound B12, 3-[(4-(2-Ethoxyphenyl)-1,3,5-triazin-2-yl)amino]benzenemethanesulfonamide], for which the IC50 in experiment [1] is 3670 nM; in experiment [2], > 10000 nM; in experiment [3], 2930 nM; in experiment [4], > 10000 nM; in experiment [5], > 10000 nM; in experiment [6], 102 nM.
Take `COc1ccccc1-c1ncnc(Nc2cccc(NS(C)(=O)=O)c2)n1` [Compound K1, N-[3-((4-(2-Methoxyphenyl)-1,3,5-triazin-2-yl)amino)phenyl]-methanesulfonamide]: the IC50 in experiment [1] is 5520 nM; in experiment [2], > 10000 nM; in experiment [3], 826 nM; in experiment [4] it was > 10000 nM; in experiment [5] it was > 10000 nM; in experiment [6], 72 nM. In experiment [7], this molecule registered an IC50 of 4420 nM.
For `COc1cc(F)ccc1-c1ncnc(Nc2cccc(CS(N)(=O)=O)c2)n1` [B2′, 1-(3-{[4-(4-fluoro-2-methoxyphenyl)-1,3,5-triazin-2-yl]amino}phenyl)methanesulfonamide hydrochloride], the IC50 in experiment [6] was 10.4 nM.
On to `COc1cc(F)ccc1-c1ncnc(Nc2cccc(CS(N)(=O)=O)c2)n1` [Compound B2, 3-[(4-(4-Fluoro-2-methoxyphenyl)-1,3,5-triazin-2-yl)amino]benzenemethanesulfonamide], for which the IC50 amounted to 10.6 nM in experiment [6] and 1030 nM in experiment [7].
Consider `COc1cnccc1-c1ncnc(Nc2cccc(CS(N)(=O)=O)c2)n1` [Compound B19, 3-[(4-(3-Methoxypyridin-4-yl)-1,3,5-triazin-2-yl)amino]benzenemethanesulfonamide], for which the figures for the IC50 in experiment [1] and in experiment [7] were 19900 nM and 10600 nM, respectively.
For `COc1cc(F)ccc1-c1ncnc(Nc2cccc(CCS(N)(=O)=O)c2)n1` [Compound D2, 2-[3-((4-(4-Fluoro-2-methoxyphenyl)-1,3,5-triazin-2-yl)amino)phenyl]ethanesulfonamide], the IC50 in experiment [1] was 1630 nM; in experiment [2], > 10000 nM; in experiment [3], 423 nM; in experiment [4], > 10000 nM; in experiment [5], > 10000 nM; in experiment [6], 12.8 nM.
As to `COc1ccccc1-c1ncnc(Nc2ccccc2)n1` [Compound P1, 4-(2-Methoxyphenyl)-N-phenyl-1,3,5-triazine-2-amine], the results for the IC50 in experiment [1], in experiment [6] and in experiment [7] were 18800 nM, 937 nM and 13900 nM, respectively.
In the case of `NS(=O)(=O)Cc1cccc(Nc2ncnc(-c3ccccc3Oc3ccccc3)n2)c1` [Compound B14, 1-(3-{[4-(2-phenoxyphenyl)-1,3,5-triazin-2-yl]amino}phenyl)methanesulfonamide], the results for the IC50 in experiment [1] and in experiment [6] were 3960 nM and 9 nM, respectively.
In the case of `COc1ccccc1-c1ncnc(Nc2cccc([N+](=O)[O-])c2)n1` [Compound H1, 4-(2-Methoxyphenyl)-N-(3-nitrophenyl)-1,3,5-triazine-2-amine], the IC50 stood at 2670 nM in experiment [1], 194 nM in experiment [6] and 2920 nM in experiment [7].
